{"source": "patent US8192962B2", "about": "“Processes for detecting toxic substances” (Daikin Industries, Ltd., priority 2001, dated 2012)", "system": "Unknown protein yeast genes", "assay": "DNA chip mRNA expression in yeast, unknown protein yeast genes (Table 1)", "type": "cell-based, Saccharomyces cerevisiae S288C", "method_in_brief": "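Whole-genome yeast DNA chip hybridization (65° C., >12 h) of Cy-labeled cDNA from S288C cells exposed 2 h at 25° C. to a sub-lethal toxicant dose in YPD; value is intensity relative to chemical-free control.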"}
{"smiles": "[Cl][Hg][Cl]", "note": "[(3), HgCl2]", "values": [{"measurement": "The level of expressed mRNA in the presence of chemical substance/The level of expressed mRNA in the absence of chemical substance", "setting": "yeast gene YKL195W, incubated two hours with chemical substance", "result": 0.4}, {"measurement": "The level of expressed mRNA in the presence of chemical substance/The level of expressed mRNA in the absence of chemical substance", "setting": "yeast gene YKR091W, incubated two hours with chemical substance", "result": 0.9}, {"measurement": "The level of expressed mRNA in the presence of chemical substance/The level of expressed mRNA in the absence of chemical substance", "setting": "yeast gene YLR054C, incubated two hours with chemical substance", "result": 0.4}, {"measurement": "The level of expressed mRNA in the presence of chemical substance/The level of expressed mRNA in the absence of chemical substance", "setting": "yeast gene YLR149C, incubated two hours with chemical substance", "result": 3.4}, {"measurement": "The level of expressed mRNA in the presence of chemical substance/The level of expressed mRNA in the absence of chemical substance", "setting": "yeast gene YLR152C, incubated two hours with chemical substance", "result": 1.1}, {"measurement": "The level of expressed mRNA in the presence of chemical substance/The level of expressed mRNA in the absence of chemical substance", "setting": "yeast gene YLR194C, incubated two hours with chemical substance", "result": 1.3}, {"measurement": "The level of expressed mRNA in the presence of chemical substance/The level of expressed mRNA in the absence of chemical substance", "setting": "yeast gene YLR324W, incubated two hours with chemical substance", "result": 0.9}, {"measurement": "The level of expressed mRNA in the presence of chemical substance/The level of expressed mRNA in the absence of chemical substance", "setting": "yeast gene YLR350W, incubated two hours with chemical substance", "result": 3.2}, {"measurement": "The level of expressed mRNA in the presence of chemical substance/The level of expressed mRNA in the absence of chemical substance", "setting": "yeast gene YLR387C, incubated two hours with chemical substance", "result": 0.8}, {"measurement": "The level of expressed mRNA in the presence of chemical substance/The level of expressed mRNA in the absence of chemical substance", "setting": "yeast gene YLR460C", "result": 2.0}, {"measurement": "The level of expressed mRNA in the presence of chemical substance/The level of expressed mRNA in the absence of chemical substance", "setting": "yeast gene YML117W, incubated two hours with chemical substance", "result": 0.9}, {"measurement": "The level of expressed mRNA in the presence of chemical substance/The level of expressed mRNA in the absence of chemical substance", "setting": "yeast gene YMR009W, incubated two hours with chemical substance", "result": 0.5}, {"measurement": "The level of expressed mRNA in the presence of chemical substance/The level of expressed mRNA in the absence of chemical substance", "setting": "yeast gene YMR067C, incubated two hours with chemical substance", "result": 1.1}, {"measurement": "The level of expressed mRNA in the presence of chemical substance/The level of expressed mRNA in the absence of chemical substance", "setting": "yeast gene YMR090W", "result": 2.3}, {"measurement": "The level of expressed mRNA in the presence of chemical substance/The level of expressed mRNA in the absence of chemical substance", "setting": "yeast gene YMR095C, incubated two hours with chemical substance", "result": 1.6}, {"measurement": "The level of expressed mRNA in the presence of chemical substance/The level of expressed mRNA in the absence of chemical substance", "setting": "yeast gene YMR097C, incubated two hours with chemical substance", "result": 0.7}, {"measurement": "The level of expressed mRNA in the presence of chemical substance/The level of expressed mRNA in the absence of chemical substance", "setting": "yeast gene YMR102C, incubated two hours with chemical substance", "result": 1.1}, {"measurement": "The level of expressed mRNA in the presence of chemical substance/The level of expressed mRNA in the absence of chemical substance", "setting": "yeast gene YMR107W, incubated two hours with chemical substance", "result": 1.7}, {"measurement": "The level of expressed mRNA in the presence of chemical substance/The level of expressed mRNA in the absence of chemical substance", "setting": "yeast gene YMR180C, incubated two hours with chemical substance", "result": 1.0}, {"measurement": "The level of expressed mRNA in the presence of chemical substance/The level of expressed mRNA in the absence of chemical substance", "setting": "yeast gene YMR184W, incubated two hours with chemical substance", "result": 1.0}, {"measurement": "The level of expressed mRNA in the presence of chemical substance/The level of expressed mRNA in the absence of chemical substance", "setting": "yeast gene YMR191W, incubated two hours with chemical substance", "result": 1.9}, {"measurement": "The level of expressed mRNA in the presence of chemical substance/The level of expressed mRNA in the absence of chemical substance", "setting": "yeast gene YMR295C, incubated two hours with chemical substance", "result": 1.2}, {"measurement": "The level of expressed mRNA in the presence of chemical substance/The level of expressed mRNA in the absence of chemical substance", "setting": "yeast gene YMR316W, incubated two hours with chemical substance", "result": 1.1}, {"measurement": "The level of expressed mRNA in the presence of chemical substance/The level of expressed mRNA in the absence of chemical substance", "setting": "yeast gene YNL044W, incubated two hours with chemical substance", "result": 2.3}, {"measurement": "The level of expressed mRNA in the presence of chemical substance/The level of expressed mRNA in the absence of chemical substance", "setting": "yeast gene YNL074C, incubated two hours with chemical substance", "result": 1.8}, {"measurement": "The level of expressed mRNA in the presence of chemical substance/The level of expressed mRNA in the absence of chemical substance", "setting": "yeast gene YNL092W, incubated two hours with chemical substance", "result": 2.4}, {"measurement": "The level of expressed mRNA in the presence of chemical substance/The level of expressed mRNA in the absence of chemical substance", "setting": "yeast gene YNL115C, incubated two hours with chemical substance", "result": 1.6}, {"measurement": "The level of expressed mRNA in the presence of chemical substance/The level of expressed mRNA in the absence of chemical substance", "setting": "yeast gene YNL156C, incubated two hours with chemical substance", "result": 0.9}, {"measurement": "The level of expressed mRNA in the presence of chemical substance/The level of expressed mRNA in the absence of chemical substance", "setting": "yeast gene YNL234W, incubated two hours with chemical substance", "result": 0.6}, {"measurement": "The level of expressed mRNA in the presence of chemical substance/The level of expressed mRNA in the absence of chemical substance", "setting": "yeast gene YNL281W, incubated two hours with chemical substance", "result": 2.0}, {"measurement": "The level of expressed mRNA in the presence of chemical substance/The level of expressed mRNA in the absence of chemical substance", "setting": "yeast gene YNL305C, incubated two hours with chemical substance", "result": 2.7}, {"measurement": "The level of expressed mRNA in the presence of chemical substance/The level of expressed mRNA in the absence of chemical substance", "setting": "yeast gene YNR068C, incubated two hours with chemical substance", "result": 2.3}, {"measurement": "The level of expressed mRNA in the presence of chemical substance/The level of expressed mRNA in the absence of chemical substance", "setting": "yeast gene YOL032W, incubated two hours with chemical substance", "result": 2.0}, {"measurement": "The level of expressed mRNA in the presence of chemical substance/The level of expressed mRNA in the absence of chemical substance", "setting": "yeast gene YOL036W, incubated two hours with chemical substance", "result": 1.3}, {"measurement": "The level of expressed mRNA in the presence of chemical substance/The level of expressed mRNA in the absence of chemical substance", "setting": "yeast gene YOL047C, incubated two hours with chemical substance", "result": 1.1}, {"measurement": "The level of expressed mRNA in the presence of chemical substance/The level of expressed mRNA in the absence of chemical substance", "setting": "yeast gene YOL071W, incubated two hours with chemical substance", "result": 1.7}, {"measurement": "The level of expressed mRNA in the presence of chemical substance/The level of expressed mRNA in the absence of chemical substance", "setting": "yeast gene YOL082W, incubated two hours with chemical substance", "result": 1.6}, {"measurement": "The level of expressed mRNA in the presence of chemical substance/The level of expressed mRNA in the absence of chemical substance", "setting": "yeast gene YOL083W, incubated two hours with chemical substance", "result": 1.2}, {"measurement": "The level of expressed mRNA in the presence of chemical substance/The level of expressed mRNA in the absence of chemical substance", "setting": "yeast gene YOL117W, incubated two hours with chemical substance", "result": 0.5}, {"measurement": "The level of expressed mRNA in the presence of chemical substance/The level of expressed mRNA in the absence of chemical substance", "setting": "yeast gene YOL131W, incubated two hours with chemical substance", "result": 0.6}, {"measurement": "The level of expressed mRNA in the presence of chemical substance/The level of expressed mRNA in the absence of chemical substance", "setting": "yeast gene YOL150C", "result": 9.9}, {"measurement": "The level of expressed mRNA in the presence of chemical substance/The level of expressed mRNA in the absence of chemical substance", "setting": "yeast gene YOL162W, incubated two hours with chemical substance", "result": 1.7}, {"measurement": "The level of expressed mRNA in the presence of chemical substance/The level of expressed mRNA in the absence of chemical substance", "setting": "yeast gene YOR019W, incubated two hours with chemical substance", "result": 0.8}, {"measurement": "The level of expressed mRNA in the presence of chemical substance/The level of expressed mRNA in the absence of chemical substance", "setting": "yeast gene YOR197W, incubated two hours with chemical substance", "result": 1.1}, {"measurement": "The level of expressed mRNA in the presence of chemical substance/The level of expressed mRNA in the absence of chemical substance", "setting": "yeast gene YPL087W, incubated two hours with chemical substance", "result": 3.0}, {"measurement": "The level of expressed mRNA in the presence of chemical substance/The level of expressed mRNA in the absence of chemical substance", "setting": "yeast gene YPL196W, incubated two hours with chemical substance", "result": 1.3}, {"measurement": "The level of expressed mRNA in the presence of chemical substance/The level of expressed mRNA in the absence of chemical substance", "setting": "yeast gene YPL206C, incubated two hours with chemical substance", "result": 1.4}, {"measurement": "The level of expressed mRNA in the presence of chemical substance/The level of expressed mRNA in the absence of chemical substance", "setting": "yeast gene YPL222W, incubated two hours with chemical substance", "result": 0.8}, {"measurement": "The level of expressed mRNA in the presence of chemical substance/The level of expressed mRNA in the absence of chemical substance", "setting": "yeast gene YPR023C, incubated two hours with chemical substance", "result": 1.2}, {"measurement": "The level of expressed mRNA in the presence of chemical substance/The level of expressed mRNA in the absence of chemical substance", "setting": "yeast gene YPR151C, incubated two hours with chemical substance", "result": 1.5}]}
